Measurements: the PolyMetriX glass transition set
± gives the standard deviation of the reports.

First: *Sc1ccc(C(=O)c2ccc(C(c3ccc(C(=O)c4ccc(*)cc4)cc3)(C(F)(F)F)C(F)(F)F)cc2)cc1 (repeat unit)
Second: *Oc1ccc(Oc2ccc(C(=O)c3cccc4cccc(C(=O)c5ccc(*)cc5)c34)cc2)cc1 (repeat unit)
The glass transition temperature of the first is lower: 175.00 °C for the first, 202.00 °C for the second.

First: *c1cc(CCOCCOC)c(*)[nH]1 (repeat unit)
Second: *CCc1ccc(*)c(CC)c1 (repeat unit)
The glass transition temperature of the first is lower: -43.00 °C for the first, 25.00 °C for the second.

Compared with `*/C=C/C1CC(*)C(C#N)([Si](C)(C)[Si](C)(C)C)C1` (repeat unit), `*/C=C/C1CC(*)C([Si](C)(C)C[Si](C)(C)C)C1` (repeat unit) is lower in glass transition temperature: 120.00 °C for the first, 24.00 °C for the second.

First: *O[Si](C)(C)O[Si](C)(C)O[Si](C)(C)c1ccc([Si](*)(C)C)cc1 (repeat unit)
Second: *Oc1ccc(C(C)(CC)c2ccc(OC(*)=O)c(C)c2)cc1C (repeat unit)
The glass transition temperature of the first is lower: -62.00 °C for the first, 119.00 °C for the second.

Going from `*c1ccc(Oc2ccc(S(=O)(=O)c3ccc(Oc4ccc(-c5nc6ccccc6n5-c5ccc(-n6c(*)nc7ccccc76)cc5)cc4)cc3)cc2)cc1` (repeat unit) to `*Oc1ccc(Oc2ccc(/C(=N/c3ccc(Oc4ccc(/N=C(\c5ccccc5)c5ccc(*)cc5)cc4)cc3)c3ccccc3)cc2)cc1` (repeat unit), the glass transition temperature falls from 270.00 °C to 162.00 °C.

Going from `*CCCCCCCCNC(=O)NCc1ccc(CNC(=O)N*)cc1` (repeat unit) to `*Oc1ccc(NC(=O)CCCCCCCCCC(=O)Nc2ccc(*)cc2)cc1` (repeat unit), the glass transition temperature rises from 68.00 °C to 150.00 °C.

Compared with `*c1ccc2c(c1)C(=O)N(c1cc(C(=O)Oc3ccc(C(c4ccc(OC(=O)c5ccc(C)c(N6C(=O)c7ccc(C(*)(C(F)(F)F)C(F)(F)F)cc7C6=O)c5)cc4)(C(F)(F)F)C(F)(F)F)cc3)ccc1C)C2=O` (repeat unit), `*c1ccc(-c2cc(-c3ccc(OCCCC#N)cc3)cc(-c3ccc(N4C(=O)c5ccc(Oc6ccc7c(c6)C(=O)N(*)C7=O)cc5C4=O)cc3)n2)cc1` (repeat unit) is higher in glass transition temperature: 289.00 °C for the first, 315.00 °C for the second.

First: *Oc1ccc(/N=C/C=N/c2ccc(OC(=O)Nc3ccc(Cc4ccc(NC(*)=O)cc4)cc3)cc2)cc1 (repeat unit)
Second: *Oc1ccc(C(C)(C)c2ccc(OC(=O)c3ccc(C(C)(C)c4ccc(C(*)=O)cc4)cc3)cc2)cc1 (repeat unit)
The glass transition temperature of the first is lower: 133.00 °C for the first, 230.00 °C for the second.

Compared with `*c1ccc(Oc2ccc(S(=O)(=O)c3ccc(C)cc3)cc2)c(-n2c(=O)c3cc4c(=O)n(*)c(=O)c4cc3c2=O)c1` (repeat unit), `*CC(O)COc1ccc(C(C)(C)c2ccc(OCC(O)COc3ccc(S(=O)(=O)c4ccc(O*)c(C)c4)cc3C)cc2)cc1` (repeat unit) is lower in glass transition temperature: 320.00 °C for the first, 117.50 °C for the second.

First: *c1ccc(C(c2ccc(C#N)cc2)c2ccc(N(*)c3ccc(C)cc3)cc2)cc1 (repeat unit)
Second: *Oc1ccc(/C=N/N=C/c2ccc(Oc3ccc(C(C)(C)c4ccc(*)cc4)cc3)cc2)cc1 (repeat unit)
The glass transition temperature of the first is higher: 230.00 °C for the first, 163.00 °C for the second.

First: *C(=O)Nc1ccc(Oc2ccc(S(=O)(=O)c3ccc(Oc4ccc(NC(=O)c5ccc6c(c5)C(=O)N(c5ccc(Oc7ccc(C8(c9ccc(Oc%10ccc(N%11C(=O)c%12ccc(*)cc%12C%11=O)cc%10)cc9)NC(=O)c9ccccc98)cc7)cc5)C6=O)cc4)cc3)cc2)cc1 (repeat unit)
Second: *c1ccc(Oc2ccc(C(C)(C)c3ccc(Oc4ccc(-c5nnc(*)c6c(-c7ccc(F)cc7)c(-c7ccc(F)cc7)c(-c7ccc(F)cc7)c(-c7ccc(F)cc7)c56)cc4)cc3)cc2)cc1 (repeat unit)
The glass transition temperature of the first is higher: 302.00 °C for the first, 282.00 °C for the second.

Going from `*OC(=O)OCCOCCOCCOC(=O)OC1COC2C(*)COC12` (repeat unit) to `*CCCCOC(=O)CCCCC(=O)O*` (repeat unit) [Poly(tetramethylene adipate) ], the glass transition temperature falls from 17.00 °C to -68 ± 2.1 °C.

First: *Oc1cc(C(C)(C)C)c(Oc2ccc(C(=O)Nc3c(C)cc(Cc4cc(C)c(NC(=O)c5ccc(*)cc5)c(C(C)C)c4)cc3C(C)C)cc2)cc1C(C)(C)C (repeat unit)
Second: *c1ccc(OC(=O)c2cccc(C(=O)Oc3ccc(C4(*)C(=O)Nc5c(Cl)cc(Cl)cc54)cc3)c2)cc1 (repeat unit)
The glass transition temperature of the first is lower: 260.00 °C for the first, 270.00 °C for the second.

Going from `*CC(*)OC(C)C` (repeat unit) [Poly(vinyl isopropyl ether) ] to `*CCCCCC(*)C` (repeat unit), the glass transition temperature falls from -4 ± 2.3 °C to -66.00 °C.

Going from `*CC(C)(CC)CS*` (repeat unit) to `*CCCN(*)C` (repeat unit), the glass transition temperature rises from -50.00 °C to -37.50 °C.

First: *Nc1cccc2c(NC(=O)c3cccc(C(*)=O)c3)cccc12 (repeat unit)
Second: *Nc1ccc(-c2ccc(NC(=O)Cc3cc(CC(*)=O)c(C)cc3C)cc2)cc1 (repeat unit)
The glass transition temperature of the first is higher: 325.00 °C for the first, 230.00 °C for the second.

Going from `*CCCCCC(=O)Oc1ccc(OC(=O)c2ccc3c(c2)C(=O)N(*)C3=O)cc1` (repeat unit) to `*CC(*)(C)C(=O)OCCCCCCOc1ccc(OC(=O)c2ccc(OC)c(Br)c2)cc1` (repeat unit), the glass transition temperature falls from 89.00 °C to 51.00 °C.

First: *OS(=O)(=O)c1cc(C)c(*)c(C)c1 (repeat unit)
Second: *Oc1c(Cl)cc(C(c2cc(Cl)c(OC(*)=O)c(Cl)c2)C(Cl)(Cl)Cl)cc1Cl (repeat unit)
The glass transition temperature of the first is lower: 153.00 °C for the first, 273.00 °C for the second.

Compared with `*/C=C/c1cccc(OC(=O)CCCCCCCCC(=O)Oc2cccc(-c3nnc(*)s3)c2)c1` (repeat unit), `*CC(*)(C)C(=O)OCCCCCCCCCCOc1ccc(OC(=O)c2ccc(OC)cc2)cc1` (repeat unit) is lower in glass transition temperature: 41.00 °C for the first, 21.00 °C for the second.

First: *c1ccc(OCCN(CCOc2ccc(-c3nc4ccc(Oc5ccc6nc(*)c(-c7ccccc7)nc6c5)cc4nc3-c3ccccc3)cc2)c2ccc(/N=N/c3ccc([N+](=O)[O-])cc3C)cc2)cc1 (repeat unit)
Second: *O[Si](*)(C)CCc1cc(C(=O)Oc2ccc(OCCCC)cc2)ccc1-c1ccc(C(=O)Oc2ccc(OCCCC)cc2)cc1 (repeat unit)
The glass transition temperature of the first is higher: 188.00 °C for the first, 96.00 °C for the second.

First: *CC(O)COC(=O)C1CCC(C(=O)OCC(O)COc2ccc(C(C)(C)c3ccc(O*)cc3)cc2)CC1 (repeat unit)
Second: *[O][Zn][O]C(=O)c1ccccc1C(=O)OCCCCCOC(=O)Nc1cc(NC(=O)OCCCCCOC(=O)c2ccccc2C(*)=O)ccc1C (repeat unit)
The glass transition temperature of the first is higher: 70.00 °C for the first, 4.20 °C for the second.

Compared with `*c1ccc([Si](CCCC)(CCCC)[Si](*)(CCCC)CCCC)s1` (repeat unit), `*CCOC(=O)CCCCCCCC(=O)O*` (repeat unit) is higher in glass transition temperature: -53.00 °C for the first, -45.00 °C for the second.

Compared with `*C(=O)c1cccc(C(=O)N2CCN(*)CC2)c1` (repeat unit), `*c1ccc2c(c1)C(=O)N(C1CC(C)(C)CC(C)(CN3C(=O)c4ccc(C(*)(C(F)(F)F)C(F)(F)F)cc4C3=O)C1)C2=O` (repeat unit) is higher in glass transition temperature: 214.50 °C for the first, 278.00 °C for the second.

First: *CCC(C(=O)OC)C(*)C(=O)OC (repeat unit)
Second: *CC(O)C(O)COC(=O)O* (repeat unit)
The glass transition temperature of the first is lower: 31.20 °C for the first, 39.60 °C for the second.
